# Results taken from patent publication US11104690B2, “Indazole derivatives useful as inhibitors of diacylglyceride O-acyltransferase 2” (Merck Sharp & Dohme Corp., priority 2016, dated 2021).
# Where “and” joins values, the source holds several entries; their conditions need not be identical. Equal entries are not always repeated.
# Target: Human DGAT2 (Homo sapiens (Human), UniProt Q96PD7)
# Test: DGAT2 Enzymatic Activity Assay (triolein formation, LC/MS/MS)
# Type: biochemical
# Details: hDGAT2 Sf-9 membrane prep; 25 μM diolein, 10 μM oleoyl-CoA; room temperature
# Outline: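 Triolein product, measured by LC/MS/MS as a ratio to internal standard, gave % inhibition and 4-parameter IC50. Reaction: 25 μM diolein, 10 μM oleoyl-CoA, 10 ng/μL hDGAT2 Sf-9 membrane, 100 mM Tris.Cl pH 7.0, 20 mM MgCl2, 5% ethanol, room temperature.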
# Chain of Human DGAT2 (Q96PD7 whole entry): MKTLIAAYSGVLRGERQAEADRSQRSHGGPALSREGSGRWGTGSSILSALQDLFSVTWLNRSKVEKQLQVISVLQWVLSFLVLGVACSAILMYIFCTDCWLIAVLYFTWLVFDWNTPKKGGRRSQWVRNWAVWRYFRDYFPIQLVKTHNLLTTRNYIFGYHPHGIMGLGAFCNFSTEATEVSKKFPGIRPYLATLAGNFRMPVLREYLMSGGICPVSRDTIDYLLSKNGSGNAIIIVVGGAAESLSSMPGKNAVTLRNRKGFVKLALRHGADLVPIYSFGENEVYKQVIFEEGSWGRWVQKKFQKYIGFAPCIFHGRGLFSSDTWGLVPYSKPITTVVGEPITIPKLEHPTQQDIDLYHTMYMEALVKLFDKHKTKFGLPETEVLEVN
row,SMILES,IC50
1,"CC1(NC(=O)c2ccc3c(-c4cc(C#N)ccc4Cl)nn(-c4ccc(F)cc4)c3c2)CCS(=O)(=O)C1 (single isomer, unassigned) [Example 119-A, 3-(2-chloro-5-cyanophenyl)-1-(4-fluorophenyl)-N-(3-methyl-1,1-dioxidotetrahydrothiophen-3-yl)-1H-indazole-6-carboxamide]",8.4 nM
2,"O=C(NC1CCS(=O)(=O)C1)c1ccc2c(-c3ccccc3Cl)nn(-c3ccc(F)cc3)c2c1 (single isomer, unassigned) [Example 2-B, 3-(2-chlorophenyl)-N-(1,1-dioxidotetrahydrothiophen-3-yl)-1-(4-fluorophenyl)-1H-indazole-6-carboxamide]",303 nM
3,"O=C(N[C@H]1CCC[C@@H]1O)c1ccc2c(-c3ccccc3Cl)nn(-c3ccc(F)cc3)c2c1 [Example 97, 3-(2-chlorophenyl)-1-(4-fluorophenyl)-N-[(1S,2S)-2-hydroxycyclopentyl]-1H-indazole-6-carboxamide]",155 nM
4,"CC(C)(C)OC(=O)CCNC(=O)c1ccc2c(-c3ccccc3Cl)nn(-c3ccc(F)cc3)c2c1 [Example 19, tert-butyl N-{[3-(2-chlorophenyl)-1-(4-fluorophenyl)-1H-indazol-6-yl]carbonyl}-beta-alaninate]",585 nM
5,"CCS(=O)(=O)CCNC(=O)c1ccc2c(-c3ccccc3Cl)nn(-c3ccc(F)cc3)c2c1 [Example 26, 3-(2-chlorophenyl)-N-[2-(ethylsulfonyl)ethyl]-1-(4-ftuorophenyl)-1H-indazole-6-carboxamide]",446 nM
6,"O=C(N[C@H](CO)Cc1ccccc1)c1ccc2c(-c3ccccc3Cl)nn(-c3ccc(F)cc3)c2c1 [Example 110, N-[(1S)-1-benzyl-2-hydroxyethyl]-3-(2-chlorophenyl)-1-(4-fluorophenyl)-1H-indazole-6-carboxamide]",134 nM
7,"O=C(N[C@@H](CO)[C@@H](O)c1ccccc1)c1ccc2c(-c3ccccc3Cl)nn(-c3ccc(F)cc3)c2c1 [Example 80, 3-(2-chlorophenyl)-1-(4-fluorophenyl)-N-[(1S,2S)-2-hydroxy-1-(hydroxymethyl)-2-phenylethyl]-1H-indazole-6-carboxamide]",127 nM
8,"CC1(NC(=O)c2ccc3c(-c4ccccc4Cl)nn(-c4nnc(C(F)(F)F)s4)c3c2)CCS(=O)(=O)C1 (racemic) [Example 182, 3-(2-chlorophenyl)-N-(3-methyl-1,1-dioxidotetrahydrothiophen-3-yl)-1-[5-(trifluoromethyl)-1,3,4-thiadiazol-2-yl]-1H-indazole-6-carboxamide]",371 nM
9,"CCOC(=O)C1(NC(=O)c2ccc3c(-c4ccccc4Cl)nn(-c4ccc(F)cc4)c3c2)CC1 [Example 62, ethyl 1-({[3-(2-chlorophenyl)-1-(4-fluorophenyl)-1H-indazol-6-yl]carbonyl}amino)cyclopropane carboxylate]",580 nM
10,"CC1(NC(=O)c2ccc3c(-c4cccc(OCC(F)(F)F)c4)nn(-c4ccc(F)cc4)c3c2)CCS(=O)(=O)C1 (single isomer, unassigned) [Example 147-A, 1-(4-fluorophenyl)-N-(3-methyl-1,1-dioxidotetrahydrothiophen-3-yl)-3-[3-(2,2,2-trifluoroethoxy)phenyl]-1H-indazole-6-carboxamide]",5.7 nM
11,"CC1(NC(=O)c2ccc3c(-c4ccc5c(c4)OCO5)nn(-c4ccc(F)cc4)c3c2)CCS(=O)(=O)C1 (single isomer, unassigned) [Example 139-A, 3-(1,3-benzodioxol-5-yl)-1-(4-fluorophenyl)-N-(3-methyl-1,1-dioxidotetrahydrothiophen-3-yl)-1H-indazole-6-carboxamide]",229 nM and 158 nM
12,"O=C(NCc1cn2cccnc2n1)c1ccc2c(-c3ccccc3Cl)nn(-c3ccc(F)cc3)c2c1 [Example 35, 3-(2-chlorophenyl)-1-(4-fluorophenyl)-N-(imidazo[1,2-a]pyrimidin-2-ylmethyl)-1H-indazole-6-carboxamide]",415 nM
13,"CCOC(=O)c1coc(-n2nc(-c3ccccc3Cl)c3ccc(C(=O)NC4(C)CCS(=O)(=O)C4)cc32)n1 (racemic) [Example 188, ethyl 2-{3-(2-chlorophenyl)-6-[(3-methyl-1,1-dioxidotetrahydrothiophen-3-yl)carbamoyl]-1H-indazol-1-yl}-1,3-oxazole-4-carboxylate]",95 nM
14,"CC(NC(=O)c1ccc2c(-c3ccccc3Cl)nn(-c3ccc(F)cc3)c2c1)c1c[nH]cn1 (racemic) [Example 14, 3-(2-chlorophenyl)-1-(4-fluorophenyl)-N-[1-(1H-imidazol-4-yl)ethyl]-1H-indazole-6-carboxamide]",78 nM
15,"CC(C)(C)OC(=O)N1CCS(=O)(=O)CC(NC(=O)c2ccc3c(-c4ccccc4Cl)nn(-c4ccc(F)cc4)c3c2)C1 (racemic) [Example 91, tert-butyl 6-({[3-(2-chlorophenyl)-1-(4-fluorophenyl)-1H-indazol-6-yl]carbonyl}amino)-1,4-thiazepane-4-carboxylate 1,1-dioxide]",572 nM
16,"CC(C)[C@@H](CO)NC(=O)c1ccc2c(-c3cc(C#N)ccc3Cl)nn(-c3ccc(F)cc3)c2c1 [Example 123, 3-(2-chloro-5-cyanophenyl)-1-(4-fluorophenyl)-N-[(1S)-1-(hydroxymethyl)-2-methylpropyl]-1H-indazole-6-carboxamide]",3.8 nM
17,"C[C@@H]1CC[C@@H](O)[C@H]1NC(=O)c1ccc2c(-c3ccccc3Cl)nn(-c3ccc(F)cc3)c2c1 [Example 72, 3-(2-chlorophenyl)-1-(4-fluorophenyl)-N-[(1S,2R,5R)-2-hydroxy-5-methylcyclopentyl]-1H-indazole-6-carboxamide]",22 nM
18,"C[C@@H](NC(=O)c1ccc2c(-c3ccccc3Cl)nn(-c3ccc(F)cc3)c2c1)c1ccc(C(F)(F)F)[n+]([O-])c1 [Example 3, 3-(2-chlorophenyl)-1-(4-fluorophenyl)-N-{(1R)-1-[1-oxido-6-(trifluoromethyl)pyridin-3-yl]ethyl}-1H-indazole-6-carboxamide]",155 nM
19,"O=C(NCc1cnoc1)c1ccc2c(-c3ccccc3Cl)nn(-c3ccc(F)cc3)c2c1 [Example 37, 3-(2-chlorophenyl)-1-(4-fluorophenyl)-N-(isoxazol-4-ylmethyl)-1H-indazole-6-carboxamide]",221 nM
20,"CC(C)(C)OC(=O)N1CC[C@@H](NC(=O)c2ccc3c(-c4ccccc4Cl)nn(-c4ccc(F)cc4)c3c2)C1 [Example 101, tert-butyl (3R)-3-({[3-(2-chlorophenyl)-1-(4-fluorophenyl)-1H-indazol-6-yl]carbonyl}amino)pyrrolidine-1-carboxylate]",136 nM
21,"CC1(NC(=O)c2ccc3c(-c4ccnc(C(F)(F)F)c4)nn(-c4ccc(F)cc4)c3c2)CCS(=O)(=O)C1 (single isomer, unassigned) [Example 159-A, 1-(4-fluorophenyl)-N-(3-methyl-1,1-dioxidotetrahydrothiophen-3-yl)-3-[2-(trifluoromethyl)pyridin-4-yl]-1H-indazole-6-carboxamide]",469 nM
22,"C[C@@H](NC(=O)c1ccc2c(-c3ccccc3Cl)nn(-c3ccc(F)cc3)c2c1)[C@H](O)c1ccccc1 [Example 107, 3-(2-chlorophenyl)-1-(4-fluorophenyl)-N-[(1R,2R)-2-hydroxy-1-methyl-2-phenylethyl]-1H-indazole-6-carboxamide]",305 nM
23,"O=C(NCCS(=O)(=O)Nc1ccccc1)c1ccc2c(-c3ccccc3Cl)nn(-c3ccc(F)cc3)c2c1 [Example 56, 3-(2-chlorophenyl)-1-(4-fluorophenyl)-N-[2-(phenylsulfamoyl)ethyl]-1H-indazole-6-carboxamide]",22 nM
24,"Cc1cccc(-c2nn(-c3ccc(F)cc3)c3cc(C(=O)NC4(C)CCS(=O)(=O)C4)ccc23)c1 (single isomer, unassigned) [Example 156-A, 1-(4-fluorophenyl)-N-(3-methyl-1,1-dioxidotetrahydrothiophen-3-yl)-3-(3-methylphenyl)-1H-indazole-6-carboxamide]",11 nM
25,"O=C(NC1CCS(=O)(=O)C1)c1ccc2c(-c3ccc[n+]([O-])c3)nn(-c3ccc(F)cc3)c2c1 (single isomer, unassigned) [Example 166-A, 3-(6-((1,1-dioxidotetrahydrothiophen-3-yl)carbamoyl)-1-(4-fluorophenyl)-1H-indazol-3-yl)pyridine 1-oxide]",843 nM
26,"CC1(NC(=O)c2ccc3c(-c4ccccc4Cl)nn(-c4ccccn4)c3c2)CCS(=O)(=O)C1 (single isomer, unassigned) [Example 174-B, 3-(2-chlorophenyl)-N-(3-methyl-1,1-dioxidotetrahydrothiophen-3-yl)-1-pyridin-2-yl-1H-indazole-6-carboxamide]",75 nM
27,"N#Cc1cccc(-c2nn(-c3ccc(F)cc3)c3cc(C(=O)NC4CCS(=O)(=O)C4)ccc23)c1 (stereo not drawn) [Example 116, 3-(3-cyanophenyl)-N-(1,1-dioxidotetrahydrothiophen-3-yl)-1-(4-fluorophenyl)-1H-indazole-6-carboxamide]",359 nM
28,"O=C(NC1CCC(O)C1)c1ccc2c(-c3ccccc3Cl)nn(-c3ccc(F)cc3)c2c1 (racemic) [Example 83, 3-(2-chlorophenyl)-1-(4-fluorophenyl)-N-(3-hydroxycyclopentyl)-1H-indazole-6-carboxamide]",276 nM
29,"O=C(NC(CCN1CCOCC1)c1ccccc1)c1ccc2c(-c3ccccc3Cl)nn(-c3ccc(F)cc3)c2c1 (racemic) [Example 109, 3-(2-chlorophenyl)-1-(4-fluorophenyl)-N-(3-morpholin-4-yl-1-phenylpropyl)-1H-indazole-6-carboxamide]",532 nM
30,"CC1(NC(=O)c2ccc3c(-c4cccc(C5CC5)c4)nn(-c4ccc(F)cc4)c3c2)CCS(=O)(=O)C1 (single isomer, unassigned) [Example 145-A, 3-(3-cyclopropylphenyl)-1-(4-fluorophenyl)-N-(3-methyl-1,1-dioxidotetrahydrothiophen-3-yl)-1H-indazole-6-carboxamide]",2.1 nM
